Patent publication US20060247250A1 (TargeGen, Inc., priority 2005, published 2006)

Key:
Assay type in all cases: biochemical
human Yes = target: T1, human Yes (Homo sapiens, UniProt P07947); assay: Yes kinase inhibition, luciferase-based residual ATP (KinaseGlo); settings: recombinant human Yes, ATP 3 μM, PTK2 substrate, 90 minutes at room temperature
T1 construct: purchased Panvera/Invitrogen
Protocol: (§1) The ability of compounds of the present invention to inhibit the activity of three groups of kinases was tested. Kinases tested included the src family (primarily src and yes), the angiogenic growth factors receptors (FGFR1, PDGFRb and VEGFR2) and the ephrin, EphB4. All kinase reactions were conducted in 96-well plates with a final reaction volume of 50 ul.
(§2) Recombinant human c-Src or Yes (28 ng/well, Panvera/Invitrogen, Madison Wis.), ATP (3 μM), a tyrosine kinase substrate (PTK2, 250 μM, Promega Corp., Madison Wis.), and test agents (at concentrations ranging from about 1 nM/l to about 100 μM/1), in the presence of Src kinase reaction buffer (Upstate USA, Lake Placid N.Y.). After reacting for about 90 minutes at room temperature, residual ATP was determined using a luciferase-based assay (KinaseGlo, Promega Corp.) as a measure of kinase activity. Data from four wells were then averaged and used to determine IC50 values for the test compounds (Prism software package, GraphPad Software, San Diego Calif.).

VEGFR2 = target: T2, VEGFR2 (Homo sapiens, UniProt P35968); assay: VEGFR2 kinase assay, residual ATP luminescence; settings: VEGFR2, poly(glu4tyr), 1.5 uM ATP, 60 minutes at 37 C; read-out: Vegfr IC50
T2 construct: purchased Cell Signaling/ProQinase
Protocol: as §1
(§3) FGFR1 and VEGFR2 kinase assays were similarly performed. FGFR1 (76 ng/well, Panvera/Invitrogen) was combined with 12.5 mg/ml poly(glu4tyr) (Sigma) and 2.5 uM ATP. VEGFR2 (14.1 U/well, Cell Signaling/ProQinase) was used with 0.3 mg/ml poly(glu4tyr) and 1.5 uM ATP. Both were incubated for 60 minutes at 37 C, and the residual ATP was measured via luminescence, per the procedure described above.

PDGFRb = target: T3, PDGFRb (Homo sapiens, UniProt P09619); assay: PDGFRb kinase assay, residual ATP luminescence; settings: PTK2 peptide, 500 nM ATP, 60 minutes at 37 C; read-out: Pdgfrβ IC50
T3 construct: purchased Panvera/Invitrogen
Protocol: as §1
PDGFRb (0.16 ug/well, Panvera/Invitrogen) 500 nM ATP and the PTK2 peptide (700 uM) were combined with compound and reaction buffer as noted above for src. The reaction was incubated for 60 minutes at 37 C, and the residual ATP concentration was determined using the luciferase-based technique also noted above.

FGFR1 = target: T4, FGFR1 (Homo sapiens, UniProt P11362); assay: FGFR1 kinase assay, residual ATP luminescence; settings: poly(glu4tyr), 2.5 uM ATP, 60 minutes at 37 C
T4 construct: purchased Panvera/Invitrogen
Protocol: as §1, §3

human c-Src = target: T5, human c-Src (Homo sapiens, UniProt P12931); assay: Src kinase inhibition, luciferase-based residual ATP (KinaseGlo); settings: recombinant human c-Src, ATP 3 μM, PTK2 substrate, 90 minutes at room temperature
T5 construct: purchased Panvera/Invitrogen
Protocol: as §1, §2

EphB4 = target: T6, EphB4 (Homo sapiens, UniProt P54760); assay: EphB4 kinase assay, residual ATP luminescence; settings: poly(glu4tyr), 6 uM ATP, 60 minutes at 37 C
T6 construct: purchased Upstate
T6 sequence (P54760 16-987): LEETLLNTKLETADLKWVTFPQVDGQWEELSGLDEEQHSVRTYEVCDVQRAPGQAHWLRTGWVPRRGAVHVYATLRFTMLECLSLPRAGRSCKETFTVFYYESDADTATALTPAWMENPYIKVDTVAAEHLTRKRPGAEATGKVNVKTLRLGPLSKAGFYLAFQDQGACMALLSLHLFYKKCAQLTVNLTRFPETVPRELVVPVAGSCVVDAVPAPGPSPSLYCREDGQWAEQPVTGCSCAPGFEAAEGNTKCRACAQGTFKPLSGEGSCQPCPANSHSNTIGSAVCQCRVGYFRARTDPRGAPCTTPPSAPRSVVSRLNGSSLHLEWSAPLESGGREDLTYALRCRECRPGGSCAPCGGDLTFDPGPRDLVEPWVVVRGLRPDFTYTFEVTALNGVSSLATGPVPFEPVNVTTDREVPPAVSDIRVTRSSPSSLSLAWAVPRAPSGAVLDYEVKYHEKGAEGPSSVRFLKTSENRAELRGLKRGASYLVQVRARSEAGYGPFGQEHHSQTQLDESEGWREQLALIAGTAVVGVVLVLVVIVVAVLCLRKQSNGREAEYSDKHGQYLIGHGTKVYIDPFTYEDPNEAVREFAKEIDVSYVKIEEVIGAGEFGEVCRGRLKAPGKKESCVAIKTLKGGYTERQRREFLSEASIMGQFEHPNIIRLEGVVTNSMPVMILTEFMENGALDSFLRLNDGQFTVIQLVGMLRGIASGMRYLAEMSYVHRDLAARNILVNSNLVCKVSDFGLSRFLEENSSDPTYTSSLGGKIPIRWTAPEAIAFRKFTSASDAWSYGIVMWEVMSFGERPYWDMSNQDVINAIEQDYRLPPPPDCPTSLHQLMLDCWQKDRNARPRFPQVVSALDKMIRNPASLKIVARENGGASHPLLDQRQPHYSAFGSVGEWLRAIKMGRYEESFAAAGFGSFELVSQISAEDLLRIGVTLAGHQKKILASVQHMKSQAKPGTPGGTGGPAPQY
Protocol: as §1
EphB4 kinase activity was similarly measured, using the luciferase-based technique described above. 28.9 mU/well EphB4 (Upstate) was reacted with 1 mg/ml poly(glu4tyr), 6 uM ATP and test reagents. The reaction was incubated for 60 minutes at 37 C and the residual ATP concentration was measured.

T5 sequence (P12931 whole entry): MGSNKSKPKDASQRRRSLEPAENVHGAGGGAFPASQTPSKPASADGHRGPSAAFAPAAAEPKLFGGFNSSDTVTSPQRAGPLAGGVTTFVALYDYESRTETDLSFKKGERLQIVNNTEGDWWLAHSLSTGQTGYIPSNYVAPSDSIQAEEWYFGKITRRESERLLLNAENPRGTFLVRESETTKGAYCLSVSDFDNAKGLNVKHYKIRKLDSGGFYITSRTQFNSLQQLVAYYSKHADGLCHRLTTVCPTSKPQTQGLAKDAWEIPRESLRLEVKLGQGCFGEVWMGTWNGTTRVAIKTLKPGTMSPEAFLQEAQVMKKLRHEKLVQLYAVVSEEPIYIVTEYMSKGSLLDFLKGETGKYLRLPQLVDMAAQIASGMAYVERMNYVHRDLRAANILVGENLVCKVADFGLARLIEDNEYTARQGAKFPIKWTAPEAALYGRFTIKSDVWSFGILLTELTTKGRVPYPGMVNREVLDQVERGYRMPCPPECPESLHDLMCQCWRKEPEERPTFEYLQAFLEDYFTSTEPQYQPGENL
T1 sequence (P07947 whole entry): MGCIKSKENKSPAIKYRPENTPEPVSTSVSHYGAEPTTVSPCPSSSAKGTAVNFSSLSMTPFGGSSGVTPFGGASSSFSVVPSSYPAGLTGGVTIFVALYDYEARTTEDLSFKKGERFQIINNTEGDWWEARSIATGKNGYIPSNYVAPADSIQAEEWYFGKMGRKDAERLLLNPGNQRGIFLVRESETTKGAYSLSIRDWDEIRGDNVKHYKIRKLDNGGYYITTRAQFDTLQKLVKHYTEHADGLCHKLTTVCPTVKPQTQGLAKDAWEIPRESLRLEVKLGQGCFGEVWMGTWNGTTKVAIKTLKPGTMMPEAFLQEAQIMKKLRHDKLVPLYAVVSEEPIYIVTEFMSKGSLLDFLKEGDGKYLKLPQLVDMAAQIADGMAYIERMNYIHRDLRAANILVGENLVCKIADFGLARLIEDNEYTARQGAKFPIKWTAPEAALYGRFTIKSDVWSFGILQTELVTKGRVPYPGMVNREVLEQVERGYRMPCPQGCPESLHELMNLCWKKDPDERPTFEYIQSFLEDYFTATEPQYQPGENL
T2 sequence (P35968 20-1356, species assumed): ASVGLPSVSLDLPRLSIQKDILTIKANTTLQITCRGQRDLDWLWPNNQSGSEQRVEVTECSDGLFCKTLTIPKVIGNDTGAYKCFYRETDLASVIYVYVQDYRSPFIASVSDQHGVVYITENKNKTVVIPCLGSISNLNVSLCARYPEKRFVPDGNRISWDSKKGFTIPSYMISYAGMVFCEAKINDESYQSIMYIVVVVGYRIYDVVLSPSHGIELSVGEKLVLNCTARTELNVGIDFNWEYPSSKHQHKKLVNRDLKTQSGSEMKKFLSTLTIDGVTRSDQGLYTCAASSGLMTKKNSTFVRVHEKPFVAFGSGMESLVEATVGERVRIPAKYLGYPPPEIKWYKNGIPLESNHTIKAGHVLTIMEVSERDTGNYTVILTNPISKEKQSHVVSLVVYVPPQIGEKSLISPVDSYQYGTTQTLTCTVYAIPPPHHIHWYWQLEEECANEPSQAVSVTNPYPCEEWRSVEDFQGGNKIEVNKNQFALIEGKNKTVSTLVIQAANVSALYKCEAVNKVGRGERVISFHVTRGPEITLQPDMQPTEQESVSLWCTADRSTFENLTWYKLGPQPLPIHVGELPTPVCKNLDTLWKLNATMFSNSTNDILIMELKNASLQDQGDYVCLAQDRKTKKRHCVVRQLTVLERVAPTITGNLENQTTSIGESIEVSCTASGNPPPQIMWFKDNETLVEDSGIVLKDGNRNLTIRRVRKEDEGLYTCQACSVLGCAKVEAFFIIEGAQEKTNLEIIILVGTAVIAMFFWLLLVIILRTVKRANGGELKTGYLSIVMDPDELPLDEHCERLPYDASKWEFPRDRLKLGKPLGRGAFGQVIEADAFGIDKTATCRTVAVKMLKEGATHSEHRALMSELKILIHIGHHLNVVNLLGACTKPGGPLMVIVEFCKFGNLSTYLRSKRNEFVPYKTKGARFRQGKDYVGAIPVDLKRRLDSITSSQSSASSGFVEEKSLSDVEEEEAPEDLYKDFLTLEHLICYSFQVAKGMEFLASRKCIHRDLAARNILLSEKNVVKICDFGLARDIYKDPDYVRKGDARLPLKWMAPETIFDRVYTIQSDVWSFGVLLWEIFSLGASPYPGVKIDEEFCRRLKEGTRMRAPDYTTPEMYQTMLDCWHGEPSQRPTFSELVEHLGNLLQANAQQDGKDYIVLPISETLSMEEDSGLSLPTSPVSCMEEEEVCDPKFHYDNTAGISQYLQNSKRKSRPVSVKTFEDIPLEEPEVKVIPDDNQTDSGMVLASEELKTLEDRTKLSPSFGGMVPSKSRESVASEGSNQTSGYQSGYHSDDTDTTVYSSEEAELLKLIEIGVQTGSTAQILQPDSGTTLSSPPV
T3 sequence (P09619 33-1106, species assumed): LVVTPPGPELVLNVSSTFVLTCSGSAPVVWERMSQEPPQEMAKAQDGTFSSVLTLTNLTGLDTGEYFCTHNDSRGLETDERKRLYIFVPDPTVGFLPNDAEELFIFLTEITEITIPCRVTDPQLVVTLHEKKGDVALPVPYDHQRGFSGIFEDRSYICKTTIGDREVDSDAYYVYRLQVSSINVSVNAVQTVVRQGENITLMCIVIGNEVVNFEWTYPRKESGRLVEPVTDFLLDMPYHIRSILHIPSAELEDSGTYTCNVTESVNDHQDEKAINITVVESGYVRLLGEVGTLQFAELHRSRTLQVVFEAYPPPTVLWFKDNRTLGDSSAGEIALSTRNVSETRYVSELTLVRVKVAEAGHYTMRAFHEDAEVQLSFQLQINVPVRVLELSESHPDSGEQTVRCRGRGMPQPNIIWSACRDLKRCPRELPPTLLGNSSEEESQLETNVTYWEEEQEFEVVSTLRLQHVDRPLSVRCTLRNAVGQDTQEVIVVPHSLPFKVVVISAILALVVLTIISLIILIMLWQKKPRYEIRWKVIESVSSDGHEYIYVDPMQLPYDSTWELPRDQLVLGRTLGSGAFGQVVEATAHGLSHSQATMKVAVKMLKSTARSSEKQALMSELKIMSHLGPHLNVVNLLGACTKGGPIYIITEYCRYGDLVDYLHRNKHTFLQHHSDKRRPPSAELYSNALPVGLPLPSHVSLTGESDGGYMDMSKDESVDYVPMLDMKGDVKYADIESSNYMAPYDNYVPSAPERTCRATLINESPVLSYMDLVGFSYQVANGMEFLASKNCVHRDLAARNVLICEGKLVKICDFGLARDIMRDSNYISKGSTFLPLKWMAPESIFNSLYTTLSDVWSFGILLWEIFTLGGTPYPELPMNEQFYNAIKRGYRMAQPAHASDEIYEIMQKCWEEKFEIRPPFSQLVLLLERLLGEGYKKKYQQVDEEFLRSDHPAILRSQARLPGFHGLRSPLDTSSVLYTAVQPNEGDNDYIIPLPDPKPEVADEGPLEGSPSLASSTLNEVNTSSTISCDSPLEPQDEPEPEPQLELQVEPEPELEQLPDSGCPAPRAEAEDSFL
T4 sequence (P11362 22-822, species assumed): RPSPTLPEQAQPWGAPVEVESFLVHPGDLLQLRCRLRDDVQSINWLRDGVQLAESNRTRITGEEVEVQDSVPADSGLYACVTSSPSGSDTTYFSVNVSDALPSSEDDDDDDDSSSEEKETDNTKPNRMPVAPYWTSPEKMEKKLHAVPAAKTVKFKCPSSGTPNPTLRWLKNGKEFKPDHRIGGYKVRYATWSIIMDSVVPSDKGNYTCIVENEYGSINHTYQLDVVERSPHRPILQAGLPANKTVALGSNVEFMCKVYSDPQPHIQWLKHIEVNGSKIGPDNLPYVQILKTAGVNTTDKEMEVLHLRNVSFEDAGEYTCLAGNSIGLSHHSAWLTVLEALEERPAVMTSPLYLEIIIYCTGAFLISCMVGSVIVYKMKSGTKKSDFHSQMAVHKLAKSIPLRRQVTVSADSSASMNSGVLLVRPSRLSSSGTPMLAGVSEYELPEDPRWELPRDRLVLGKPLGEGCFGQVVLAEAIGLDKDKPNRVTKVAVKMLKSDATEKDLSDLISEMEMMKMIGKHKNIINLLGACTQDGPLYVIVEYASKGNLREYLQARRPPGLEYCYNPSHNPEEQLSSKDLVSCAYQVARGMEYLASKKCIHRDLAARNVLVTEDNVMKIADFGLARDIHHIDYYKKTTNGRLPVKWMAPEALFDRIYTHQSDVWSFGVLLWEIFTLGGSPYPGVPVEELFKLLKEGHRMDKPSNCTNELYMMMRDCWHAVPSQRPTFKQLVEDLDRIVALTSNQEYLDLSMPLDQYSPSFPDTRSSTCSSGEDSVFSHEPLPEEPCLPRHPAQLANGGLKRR

IC50 (human Yes) [nM] | IC50 (VEGFR2) [nM] | IC50 (PDGFRb) [nM] | IC50 (FGFR1) [nM] | IC50 (human c-Src) [nM] | IC50 (EphB4) [nM] | Compound
40 | 907 | 51 | 5280 | – | – | Clc1cccc(Cl)c1CNc1cnc(Nc2ccc(OCCN3CCCC3)cc2)nc1
26 | > 10000 | 206 | > 10000 | – | – | O=C(Nc1cnc(Nc2ccc(CCCN3CCCC3)cc2)nc1)c1c(Cl)cccc1Cl
– | – | – | – | 104 | – | Cc1cccc(C)c1C(=O)Nc1cnc(Nc2ccc(OCCN3CCCC3)cc2)nc1 [XXXIX, N-(2-(4-(2-(Pyrrolidin-1-yl)ethoxy)phenylamino)pyrimidin-5-yl)-2,6-dimethyl-benzamide]
– | – | – | – | 27 | – | O=C(Nc1cnc(Nc2ccc(OCCN3CCCC3)cc2)nc1)c1cc(O)ccc1Cl [XXXVIII, N-(2-(4-(2-(Pyrrolidin-1-yl)ethoxy)phenylamino)pyrimidin-5-yl)-2-chloro-5-hydroxybenzamide]
26 | 564 | 20 | 20000 | – | 200 | O=C(Nc1cnc(Nc2ccc(OCCN3CCCC3)cc2)nc1)c1cc(O)ccc1Cl [drawing 200]
10 | 1260 | 13 | 7200 | – | 109 | O=C(Nc1cnc(Nc2cccc(OCCN3CCCC3)c2)nc1)c1cc(O)ccc1Cl [drawing 201]
8 | > 10000 | 181 | > 10000 | – | 434 | O=C(Nc1cnc(Nc2cccc(OCCN3CCCC3)c2)nc1)c1c(Cl)cccc1Cl [drawing 202]
6 | 138 | – | > 10000 | – | 190 | Clc1cccc(Cl)c1CNc1cnc(Nc2cccc(OCCN3CCCC3)c2)nc1 [drawing 211]

More lines, now with the values behind:

Compound | IC50 (human Yes) [nM] | IC50 (VEGFR2) [nM] | IC50 (PDGFRb) [nM] | IC50 (FGFR1) [nM] | IC50 (human c-Src) [nM] | IC50 (EphB4) [nM]
Cc1c(O)cccc1C(=O)Nc1cnc(Nc2ccc(C(=O)NCCN3CCCC3)cc2)nc1 [XXVII, 3-Hydroxy-2-methyl-N-{2-[4-(2-pyrrolidin-1-yl-ethylcarbamoyl)-phenylamino]-pyrimidin-5-yl}-benzamide] | – | – | – | – | 216 | –
O=C(NCCN1CCCC1)c1ccc(Nc2ncc(NC(=O)c3c(Cl)cccc3Cl)cn2)cc1 [XXVIII, 2,6-Dichloro-N-{2-[4-(2-pyrrolidin-1-yl-ethylcarbamoyl)-phenylamino]-pyrimidin-5-yl}-benzamide] | – | – | – | – | 60 | –
O=C(Nc1cc(O)ccc1Cl)c1cnc(Nc2ccc(OCCN3CCCC3)cc2)nc1C(F)(F)F [XXX, 2-[4-(2-Pyrrolidin-1-yl-ethoxy)-phenylamino]-4-trifluoromethyl-pyrimidine-5-carboxylic acid (2-chloro-5-hydroxy-phenyl)-amide] | – | – | – | – | 1340 | –
N#Cc1cccc(C(=O)Nc2cnc(Nc3ccc(S(=O)(=O)CCCN4CCCC4)cc3)nc2)c1 [XXXI, 3-Cyano-N-{2-[4-(3-pyrrolidin-1-yl-propane-1-sulfonyl)-phenylamino]-pyrimidin-5-yl}-benzamide] | – | – | – | – | > 10000 | –
O=C(Nc1cnc(Nc2ccc(S(=O)(=O)CCCN3CCCC3)cc2)nc1)c1cc(O)ccc1Cl [XXXII, 2-Chloro-5-hydroxy-N-{2-[4-(3-pyrrolidin-1-yl-propane-1-sulfonyl)-phenylamino]-pyrimidin-5-yl}-benzamide] | – | – | – | – | 9.8 | –
Cc1c(O)cccc1C(=O)Nc1cnc(Nc2ccc(S(=O)(=O)CCCN3CCCC3)cc2)nc1 [XXXIII, 3-Hydroxy-2-methyl-N-{2-[4-(3-pyrrolidin-1-yl-propane-1-sulfonyl)-phenylamino]-pyrimidin-5-yl}-benzamide] | – | – | – | – | 338 | –
O=C(Nc1cnc(Nc2ccc(S(=O)(=O)CCCN3CCCC3)cc2)nc1)c1c(Cl)cccc1Cl [XXXIV, 2,6-Dichloro-N-{2-[4-(3-pyrrolidin-1-yl-pronane-1-sulfonyl)-phenylamino]-pyrimidin-5-yl}-benzamide] | – | – | – | – | 119 | –
O=C(Nc1cnc(Nc2ccc(S(=O)(=O)CCCN3CCCC3)cc2)nc1)c1ccc(O)cc1Cl [XXXV, 2-Chloro-4-hydroxy-N-{2-[4-(3-pyrrolidin-1-yl-propane-1-sulfonyl)-phenylamino]-pyrimidin-5-yl}-benzamide] | – | – | – | – | 462 | –
O=C(Nc1cnc(Nc2ccc(S(=O)(=O)CCCN3CCCC3)cc2)nc1)c1cccc(O)c1 [XXXVI, 3-Hydroxy-N-{2-[4-(3-pyrrolidin-1-yl-propane-1-sulfonyl)-phenylamino]-pyrimidin-5-yl}-benzamide] | – | – | – | – | 1490 | –
O=C(Nc1cnc(Nc2ccc(S(=O)(=O)CCCN3CCCC3)cc2)nc1)c1cc(Cl)ccc1Cl [XXXVII, 2,5-Dichloro-N-{2-[4-(3-pyrrolidin-1-yl-propane-1-sulfonyl)-phenylamino]-pyrimidin-5-yl}-benzamide] | – | – | – | – | 1750 | –
O=C(Nc1cnc(Nc2ccc(S(=O)(=O)NCCN3CCCC3)cc2)nc1)c1cc(O)ccc1Cl [drawing 203] | 0.8 | 322 | – | 5200 | – | –
O=C(NCCN1CCCC1)c1ccc(Nc2ncc(NC(=O)c3cc(O)ccc3Cl)cn2)cn1 [drawing 204] | 3.1 | 870 | 13 | 1000 | – | 89
O=C(Nc1cnc(Nc2ccc(C(=O)N3CCNCC3)cc2)nc1)c1cc(O)ccc1Cl [drawing 205] | 1.9 | 310 | – | 5400 | – | –
O=C(Nc1cnc(Nc2ccc(S(=O)(=O)CCCN3CCCC3)cc2)nc1)c1cc(O)ccc1Cl [drawing 206] | 3.7 | 358 | – | 7500 | – | –
CN1CCN(C(=O)c2ccc(Nc3ncc(NC(=O)c4cc(O)ccc4Cl)cn3)cc2)CC1 [drawing 207] | 10 | 360 | – | 9400 | – | –
O=C(NCCN1CCCC1)c1ccc(Nc2ncc(NC(=O)c3cc(O)ccc3Cl)cn2)cc1 [drawing 208] | 4.4 | 257 | 6.3 | 8200 | – | 59
O=C(NCCN1CCCC1)c1csc(Nc2ncc(NC(=O)c3cc(O)ccc3Cl)cn2)n1 [drawing 209] | 19 | 614 | – | 2100 | – | –
CC(C)N(CCO)C(=O)c1ccc(Nc2ncc(NC(=O)c3cc(O)ccc3Cl)cn2)cc1 [drawing 210] | 6 | > 10000 | 138 | > 10000 | – | 190
